One block for each compound: values may come before it.
Key:
[1] = Dissociation constant, pKa of the compound; format: physicochemical
[2] = Plasma clearance in rat at 2 mg/kg, po; format: ADME, organism-based; parameters: dose 2 mg/kg, route oral
[3] = Half life in rat plasma at 2 mg/kg, po; format: ADME, organism-based; parameters: dose 2 mg/kg, route oral
[4] = Cmax in rat at 2 mg/kg, po; format: ADME, organism-based; parameters: dose 2 mg/kg, route oral; conditions: in vivo
Cathepsin K = target: T1, Cathepsin K (Homo sapiens, UniProt P43235); assay: Inhibition of cathepsin K
T1 sequence (P43235 whole entry): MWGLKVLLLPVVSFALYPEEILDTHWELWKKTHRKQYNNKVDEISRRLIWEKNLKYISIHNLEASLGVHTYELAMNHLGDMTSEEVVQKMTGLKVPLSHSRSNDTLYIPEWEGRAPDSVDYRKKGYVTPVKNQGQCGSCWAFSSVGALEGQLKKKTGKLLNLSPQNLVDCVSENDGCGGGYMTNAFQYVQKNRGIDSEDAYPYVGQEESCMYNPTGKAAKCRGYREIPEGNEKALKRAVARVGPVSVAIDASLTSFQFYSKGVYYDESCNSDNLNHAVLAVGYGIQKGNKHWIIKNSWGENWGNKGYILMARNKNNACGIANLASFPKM

Prothrombin = Prothrombin (Homo sapiens, UniProt P00734); assay: Inhibition of human thrombin
Cannabinoid receptor 1 = Cannabinoid receptor 1 (Homo sapiens, UniProt P21554); assay: Displacement of [3H]CP-55940 from human CB1 receptor expressed in CHO cells; format: cell-based
Chain of Cannabinoid receptor 1 (P21554 whole entry): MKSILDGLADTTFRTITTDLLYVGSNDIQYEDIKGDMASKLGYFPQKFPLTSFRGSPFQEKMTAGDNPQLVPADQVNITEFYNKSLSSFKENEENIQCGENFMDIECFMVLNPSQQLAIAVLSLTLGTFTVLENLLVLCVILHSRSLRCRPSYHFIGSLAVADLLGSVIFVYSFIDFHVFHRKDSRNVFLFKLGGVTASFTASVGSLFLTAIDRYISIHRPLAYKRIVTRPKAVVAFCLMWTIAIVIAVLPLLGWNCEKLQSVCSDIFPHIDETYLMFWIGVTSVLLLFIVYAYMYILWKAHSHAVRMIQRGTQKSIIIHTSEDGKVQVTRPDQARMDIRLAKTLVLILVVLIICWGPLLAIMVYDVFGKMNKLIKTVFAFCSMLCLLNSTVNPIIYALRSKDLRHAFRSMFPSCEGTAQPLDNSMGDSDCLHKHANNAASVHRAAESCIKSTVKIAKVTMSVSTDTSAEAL

Cavia porcellus = assay: Inhibition of resiniferatoxin-induced systemic vascular leakage in po dosed guinea pig […] model after 24 hrs; format: functional
Meriones unguiculatus = assay: Inhibition of GR-73632-induced foot-tapping in iv dosed gerbils after 24 hrs; format: functional; conditions: read-out: ID50 (the source's name)
[5] = Oral bioavailability in rat; format: ADME, organism-based; conditions: in vivo
[6] = Plasma clearance in rat at 10 mg/kg, po; format: ADME, organism-based; parameters: dose 10 mg/kg, route oral
[7] = Half life in rat plasma at 10 mg/kg, po; format: ADME, organism-based; parameters: dose 10 mg/kg, route oral
[8] = Cmax in rat at 10 mg/kg, po; format: ADME, organism-based; parameters: dose 10 mg/kg, route oral; conditions: in vivo
[9] = Drug level in duct cannulated rat bile at 5 mg/kg, iv; format: ADME, organism-based; parameters: dose 5 mg/kg, route intravenous; conditions: in vivo, read-out: Drug uptake
[10] = Metabolic stability in rat hepatocytes after 2 hrs
Liver microsomes = assay: Metabolic stability in human liver microsomes assessed as covalent protein binding per mg of protein; format: ADME, Microsome
[11] = target: T2, Prostaglandin D2 receptor (Homo sapiens, UniProt Q13258)
T2 sequence (Q13258 whole entry): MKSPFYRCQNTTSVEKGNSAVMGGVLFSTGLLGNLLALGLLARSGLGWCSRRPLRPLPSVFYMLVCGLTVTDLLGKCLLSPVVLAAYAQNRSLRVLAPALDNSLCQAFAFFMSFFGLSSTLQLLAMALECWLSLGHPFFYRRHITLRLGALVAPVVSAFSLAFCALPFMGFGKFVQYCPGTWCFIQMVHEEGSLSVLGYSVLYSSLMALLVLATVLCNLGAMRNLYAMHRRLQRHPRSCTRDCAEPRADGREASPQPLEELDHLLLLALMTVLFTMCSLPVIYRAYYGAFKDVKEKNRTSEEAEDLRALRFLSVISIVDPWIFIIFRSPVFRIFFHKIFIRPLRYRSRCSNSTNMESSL

Substance-P receptor = Substance-P receptor (Homo sapiens, UniProt P25103); assay: Inhibition of NK1 receptor
Chain of Substance-P receptor (P25103 whole entry): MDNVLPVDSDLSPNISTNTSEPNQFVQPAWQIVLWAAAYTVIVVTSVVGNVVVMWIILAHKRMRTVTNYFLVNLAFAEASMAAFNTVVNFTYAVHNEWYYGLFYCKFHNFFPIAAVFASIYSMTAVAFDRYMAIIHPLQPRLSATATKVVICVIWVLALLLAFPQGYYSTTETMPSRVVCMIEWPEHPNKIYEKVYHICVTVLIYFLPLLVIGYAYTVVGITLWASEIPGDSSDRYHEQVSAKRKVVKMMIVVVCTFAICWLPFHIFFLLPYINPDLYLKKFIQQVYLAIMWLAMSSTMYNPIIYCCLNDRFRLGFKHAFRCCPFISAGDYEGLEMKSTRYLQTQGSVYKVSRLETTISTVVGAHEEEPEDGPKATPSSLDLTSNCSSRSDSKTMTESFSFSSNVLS

[12] = Half life in human plasma; format: ADME, organism-based

Structure (SMILES): Fc1ccccn1
pKa [1]: -0.44

Structure (SMILES): C[C@H](NC(=O)C(C)(C)Oc1ccc(C(F)(F)F)cn1)[C@@H](Cc1ccc(Cl)cc1)c1cccc(C#N)c1 [TARANABANT]
CL/F [2]: 33 mL/min/kg
half-life [3]: 2.7 h
Cmax [4]: 0.49 µM

Structure (SMILES): CC(C)C[C@H](N[C@@H](c1ccc(-c2ccc(N3CCNCC3)cc2)cc1)C(F)(F)F)C(=O)NCC#N
IC50 (Cathepsin K): ≤ 0.005 nM

Structure (SMILES): CCc1nnc2n1CCN(C(=O)C[C@H](N)Cc1cc(F)c(F)cc1F)C2
CL/F [2]: 70 mL/min/kg
half-life [3]: 1.7 h

Structure (SMILES): N=C(N)c1ccc([C@H]2C3C(=O)N(Cc4ccccc4F)C(=O)C3C3CCCN32)cc1 (some centres not stated)
Ki (Prothrombin): 500 nM

Structure (SMILES): O=C(O)c1ccccc1F
pKa [1]: 3.27

Structure (SMILES): Oc1ccc(F)cc1
pKa [1]: 9.89

Structure (SMILES): N[C@@H](CC(=O)N1CCn2c(nnc2C(F)(F)C(F)(F)F)C1)Cc1cc(F)c(F)cc1F
CL/F [2]: 58 mL/min/kg
half-life [3]: 2.3 h

Structure (SMILES): O=C(O)C(F)F
pKa [1]: 1.24

Structure (SMILES): Nc1ccc(F)cc1
pKa [1]: 4.65

Structure (SMILES): C[C@H](NC(=O)C(C)(C)Oc1cc(F)cc(F)c1)[C@@H](Cc1ccc(Cl)cc1)c1ccccc1
CL/F [2]: 35 mL/min/kg
half-life [3]: 2.4 h
Cmax [4]: 0.3 µM
IC50 (Cannabinoid receptor 1): 1.47 nM

Structure (SMILES): C[C@@H](O[C@H]1OCCN(Cc2n[nH]c(=O)[nH]2)[C@H]1c1ccc(F)cc1)c1cc(C(F)(F)F)cc(C(F)(F)F)c1 [APREPITANT]
ID90 (Cavia porcellus): 1.8 mg/kg
ED50 (Meriones unguiculatus): 0.33 mg/kg

Structure (SMILES): Fc1ccc2cccnc2c1
pKa [1]: 4.04

Structure (SMILES): O=c1[nH]nc(CN2CCO[C@H](OCc3cc(C(F)(F)F)cc(C(F)(F)F)c3)[C@@H]2c2ccc(F)cc2)[nH]1
ID90 (Cavia porcellus): 2.3 mg/kg
ED50 (Meriones unguiculatus): 1.24 mg/kg

Structure (SMILES): Nc1cccc(C(F)(F)F)c1
pKa [1]: 3.49

Structure (SMILES): CS(=O)(=O)c1cc(F)cc2c3c(n(Cc4ccc(Cl)cc4)c12)C(CC(=O)O)CC3 (stereo not drawn) [DIASTEREOMER 2]
bioavailability [5]: 79%
CL/F [6]: 2.4 mL/min/kg
half-life [7]: 7 h
Cmax [8]: 39 µM
concentration [9]: 103 µM
remaining at 2 h [10]: 32%

Structure (SMILES): OCC(F)(F)F [TRIFLUOROETHANOL]
pKa [1]: 12.4

Structure (SMILES): CC(=O)c1cc(F)cc2c3c(n(Cc4ccc(Cl)cc4)c12)C(CC(=O)O)CC3 (configuration not stated)
bioavailability [5]: 52%
CL/F [6]: 1.9 mL/min/kg
half-life [7]: 4 h
Cmax [8]: 21 µM
concentration [9]: 81 µM
Activity (Liver microsomes): 46 pmol/h
Ki [11]: 1.1 nM
remaining at 2 h [10]: 35%

Structure (SMILES): Cc1nnn[nH]1
pKa [1]: 4.9

Structure (SMILES): N#CCNC(=O)C1(NC(=O)c2ccc(-c3ccc(N4CCNCC4)cc3)cc2)CCCCC1
IC50 (Cathepsin K): 0.4 nM

Structure (SMILES): N=C(N)c1ccc([C@H]2C3C(=O)N(Cc4cccc(F)c4)C(=O)C3C3CCCN32)cc1 (some centres not stated)
Ki (Prothrombin): 360 nM

Structure (SMILES): Nc1ccc(C(F)(F)F)cc1
pKa [1]: 2.57

Structure (SMILES): C[C@@H](O[C@H]1OCCN(Cc2n[nH]c(=O)[nH]2)[C@H]1c1ccccc1)c1cc(C(F)(F)F)cc(C(F)(F)F)c1
IC50 (Substance-P receptor): 0.09 nM
ID90 (Cavia porcellus): 2.3 mg/kg
ED50 (Meriones unguiculatus): 1.11 mg/kg

Structure (SMILES): O=c1[nH]nc(CN2CCO[C@H](OCc3cc(C(F)(F)F)cc(C(F)(F)F)c3)[C@@H]2c2ccccc2)[nH]1
ID90 (Cavia porcellus): 5.4 mg/kg
ED50 (Meriones unguiculatus): 2.88 mg/kg

Continued, values first:

pKa [1]: 3.87
Structure (SMILES): O=C(O)c1cccc(F)c1

pKa [1]: 3.79
Structure (SMILES): O=C(O)c1cccc(C(F)(F)F)c1

pKa [1]: 9.29
Structure (SMILES): Oc1cccc(F)c1

pKa [1]: 3.1
Structure (SMILES): Fc1cccc2cccnc12

CL/F [2]: 40 mL/min/kg
half-life [3]: 1 h
Structure (SMILES): N[C@@H](CC(=O)N1CCn2cnnc2C1)Cc1cc(F)c(F)cc1F

pKa [1]: 8.9
Structure (SMILES): Oc1cccc(C(F)(F)F)c1

CL/F [2]: 43 mL/min/kg
half-life [3]: 1.6 h
Structure (SMILES): N[C@@H](CC(=O)N1CCn2c(nnc2C(F)(F)F)C1)Cc1cc(F)ccc1F

pKa [1]: 2.97
Structure (SMILES): Fc1cccnc1

pKa [1]: 4
Structure (SMILES): Fc1ccc2ncccc2c1

CL/F [2]: 60 mL/min/kg
half-life [3]: 1.7 h
Structure (SMILES): N[C@@H](CC(=O)N1CCn2c(nnc2C(F)(F)F)C1)Cc1cc(F)c(F)cc1F [SITAGLIPTIN]

pKa [1]: 4.14
Structure (SMILES): O=C(O)c1ccc(F)cc1

CL/F [2]: 25 mL/min/kg
half-life [3]: 2.2 h
Cmax [4]: 0.44 µM
bioavailability [5]: 29%
Structure (SMILES): C[C@H](NC(=O)C(C)(C)Oc1ccccn1)[C@@H](Cc1ccc(Cl)cc1)c1ccccc1

pKa [1]: 1.7
Structure (SMILES): FC(F)(F)c1nnn[nH]1

CL/F [2]: 33 mL/min/kg
half-life [3]: 2.8 h
Cmax [4]: 0.18 µM
bioavailability [5]: 9%
Structure (SMILES): C[C@H](NC(=O)C(C)(C)Oc1ccccc1)[C@@H](Cc1ccc(Cl)cc1)c1ccccc1

pKa [1]: 3.2
Structure (SMILES): Nc1ccccc1F

bioavailability [5]: 100%
CL/F [6]: 14 mL/min/kg
half-life [7]: 1.4 h
concentration [9]: 1100 µM
Activity (Liver microsomes): 18 pmol/h
remaining at 2 h [10]: 93%
Structure (SMILES): CC(=O)c1cc(S(C)(=O)=O)cc2c3c(n(Cc4ccc(Cl)cc4)c12)[C@@H](CC(=O)O)CC3

CL/F [2]: 35 mL/min/kg
half-life [3]: 2.2 h
Cmax [4]: 1.2 µM
bioavailability [5]: 100%
IC50 (Cannabinoid receptor 1): 0.54 nM
Structure (SMILES): C[C@H](NC(=O)C(C)(C)Oc1ccc(C(F)(F)F)cn1)[C@@H](Cc1ccc(Cl)cc1)c1ccccc1

IC50 (Cathepsin K): 5 nM
Structure (SMILES): N#CCNC(=O)C1(N[C@@H](c2ccc(-c3ccc(N4CCNCC4)cc3)cc2)C(F)(F)F)CCCCC1

IC50 (Cathepsin K): 0.015 nM
Structure (SMILES): CC(C)C[C@H](NC(=O)c1ccc(-c2ccc(N3CCNCC3)cc2)cc1)C(=O)NCC#N

pKa [1]: 2.36
Structure (SMILES): Fc1cnc2ccccc2c1

CL/F [2]: 51 mL/min/kg
half-life [3]: 1.8 h
Structure (SMILES): N[C@@H](CC(=O)N1CCn2c(nnc2C(F)(F)F)C1)Cc1ccc(F)c(F)c1

pKa [1]: 8.73
Structure (SMILES): Oc1ccccc1F

pKa [1]: 3.68
Structure (SMILES): Fc1cccc2ncccc12

half-life [12]: 11.2 h
Structure (SMILES): Cc1ccc(-c2cc(C(F)(F)F)nn2-c2ccc(S(N)(=O)=O)cc2)cc1 [CELECOXIB]

pKa [1]: 3.06
Structure (SMILES): O=C(O)CC(F)(F)F
